Source: ChEMBL document CHEMBL1201862, “PubChem BioAssay data set” (2004)
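1) Cells in 96-well plates. 2) Compound, 48 h, 5 concentrations. 3) Linear interpolation between surrounding doses. 4) Unreached endpoint = highest concentration. GI50 = concentration required for 50% inhibition of growth.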 Activity calls are given as the source filed them. Cut-off read from the data, not from the text of the source: active = GI50 up to about 1.1 µM and inactive = higher.

Experiments:
Test in all cases: DTP human tumour cell line panel, 48 h
UO-31 = tested on: UO-31
A549 = tested on: A549
HOP-62 = tested on: HOP-62
OVCAR-3 = tested on: OVCAR-3
UACC-257 = tested on: UACC-257
MCF7 = tested on: MCF7
TK-10 = tested on: TK-10
CCRF-CEM = tested on: CCRF-CEM
OVCAR-8 = tested on: OVCAR-8
BT-549 = tested on: BT-549
DMS-114 = tested on: DMS-114
HL-60 = tested on: HL-60
T47D = tested on: T47D
DMS-273 = tested on: DMS-273
NCI-H226 = tested on: NCI-H226
ACHN = tested on: ACHN
U-251 = tested on: U-251
IGROV-1 = tested on: IGROV-1
MDA-N = tested on: MDA-N
NCI-H522 = tested on: NCI-H522
UACC-62 = tested on: UACC-62
Malme-3M = tested on: Malme-3M
SR = tested on: SR
SN12C = tested on: SN12C
CAKI-1 = tested on: CAKI-1
SNB-19 = tested on: SNB-19
DU-145 = tested on: DU-145
LXFL 529 = tested on: LXFL 529
RPMI-8226 = tested on: RPMI-8226
EKVX = tested on: EKVX
NCI/ADR-RES = tested on: NCI/ADR-RES
HCT-116 = tested on: HCT-116
M19-MEL = tested on: M19-MEL
MOLT-4 = tested on: MOLT-4
SK-MEL-5 = tested on: SK-MEL-5
RXF 393 = tested on: RXF 393
XF498 = tested on: XF498
Hs-578T = tested on: Hs-578T
786-0 = tested on: 786-0
SK-OV-3 = tested on: SK-OV-3
SF-295 = tested on: SF-295
OVCAR-4 = tested on: OVCAR-4
SF-268 = tested on: SF-268
HOP-92 = tested on: HOP-92
LOX IMVI = tested on: LOX IMVI
SF-539 = tested on: SF-539
A498 = tested on: A498
COLO 205 = tested on: COLO 205
KM-20L2 = tested on: KM-20L2
NCI-H23 = tested on: NCI-H23
M14 = tested on: M14
HCC 2998 = tested on: HCC 2998
OVCAR-5 = tested on: OVCAR-5
K562 = tested on: K562
SK-MEL-28 = tested on: SK-MEL-28
HCT-15 = tested on: HCT-15
KM12 = tested on: KM12
PC-3 = tested on: PC-3
MDA-MB-435 = tested on: MDA-MB-435
DLD-1 = tested on: DLD-1
SNB-75 = tested on: SNB-75
SK-MEL-2 = tested on: SK-MEL-2
MDA-MB-231 = tested on: MDA-MB-231
NCI-H460 = tested on: NCI-H460
SNB-78 = tested on: SNB-78
HT-29 = tested on: HT-29
SW-620 = tested on: SW-620

For `C=C(C)[C@H]1Cc2c(ccc3c2O[C@@H]2COc4cc(OC)c(OC)cc4[C@@H]2C3=O)O1` [ROTENONE], the GI50 (UO-31) was 0.131 µM (active), the GI50 (A549) was 0.0785 µM (active) and the GI50 (HOP-62) was 0.168 µM (active). For the same compound, the GI50 (OVCAR-3) was 0.0566 µM (active), the GI50 (UACC-257) was 0.0516 µM (active) and the GI50 (MCF7) was 0.281 µM (active). For the same compound, the GI50 (TK-10) was 0.229 µM (active), the GI50 (CCRF-CEM) was 0.951 µM (active) and the GI50 (OVCAR-8) was 0.257 µM (active). The GI50 (BT-549) was 0.164 µM (active), the GI50 (DMS-114) was < 0.01 µM (active) and the GI50 (HL-60) was 0.0611 µM (active). For the same compound, the GI50 (T47D) was 0.0989 µM (active), the GI50 (DMS-273) was 0.0378 µM (active) and the GI50 (NCI-H226) was 0.177 µM (active). For the same compound, the GI50 (ACHN) was 0.0522 µM (active), the GI50 (U-251) was 0.224 µM (active) and the GI50 (IGROV-1) was 0.126 µM (active). The GI50 (MDA-N) was 0.0423 µM (active), the GI50 (NCI-H522) was 0.0247 µM (active) and the GI50 (UACC-62) was 0.0597 µM (active). The GI50 (Malme-3M) was 0.0762 µM (active), the GI50 (SR) was 0.617 µM (active) and the GI50 (SN12C) was 0.404 µM (active). The GI50 (CAKI-1) was 0.185 µM (active), the GI50 (SNB-19) was 0.327 µM (active) and the GI50 (DU-145) was 0.133 µM (active). For the same compound, the GI50 (LXFL 529) was 0.0368 µM (active), the GI50 (RPMI-8226) was 0.0575 µM (active) and the GI50 (EKVX) was 0.736 µM (active). The GI50 (NCI/ADR-RES) was 0.0635 µM (active), the GI50 (HCT-116) was 0.0618 µM (active) and the GI50 (M19-MEL) was 0.0559 µM (active). The GI50 (MOLT-4) was 0.693 µM (active), the GI50 (SK-MEL-5) was 0.0203 µM (active) and the GI50 (RXF 393) was 0.0836 µM (active). The GI50 (XF498) was 0.055 µM (active), the GI50 (Hs-578T) was 0.0785 µM (active) and the GI50 (786-0) was 0.236 µM (active). The GI50 (SK-OV-3) was 0.206 µM (active), the GI50 (SF-295) was 0.0399 µM (active) and the GI50 (OVCAR-4) was 0.577 µM (active). The GI50 (SF-268) was 0.191 µM (active), the GI50 (HOP-92) was 0.116 µM (active) and the GI50 (LOX IMVI) was 0.0624 µM (active). The GI50 (SF-539) was 0.128 µM (active), the GI50 (A498) was 0.335 µM (active) and the GI50 (COLO 205) was 0.118 µM (active). For the same compound, the GI50 (KM-20L2) was 0.128 µM (active), the GI50 (NCI-H23) was 0.0258 µM (active) and the GI50 (M14) was 0.21 µM (active). For the same compound, the GI50 (HCC 2998) was 0.316 µM (active), the GI50 (OVCAR-5) was 2.55 µM (inactive) and the GI50 (K562) was 0.0929 µM (active). For the same compound, the GI50 (SK-MEL-28) was 0.162 µM (active), the GI50 (HCT-15) was 0.122 µM and the GI50 (KM12) was 0.0897 µM (active). The GI50 (PC-3) was 0.155 µM (active), the GI50 (MDA-MB-435) was 0.0206 µM (active) and the GI50 (DLD-1) was 0.241 µM (active). The GI50 (SNB-75) was 0.152 µM (active), the GI50 (SK-MEL-2) was 0.171 µM (active) and the GI50 (MDA-MB-231) was 1.02 µM (active). The GI50 (NCI-H460) was 0.0891 µM (active), the GI50 (SNB-78) was 0.456 µM (active) and the GI50 (HT-29) was 0.127 µM (active). For the same compound, the GI50 (SW-620) was 0.131 µM (active).
